Source: patent US12459956B2, “Heterobicyclic carboxamides and uses thereof” (ALCON INC., priority 2019, dated 2025)

Key:
Assay type in all cases: biochemical
Settings in all cases: KINASE-GLO luminescent kinase assay
ROCK2 = ROCK2 (Homo sapiens (Human), UniProt O75116); experiment: ROCK Kinase Inhibition Assay (ROCK2)
Procedure: (§1) All compounds were initially prepared as 10 mM stocks in anhydrous dimethylsulfoxide (DMSO). A 20 μL aliquot of the 10 mM solutions was transferred to individual wells in column 1 of a 96-well polypropylene microtiter plate (Corning #3363) and diluted with DMSO to give a final compound concentration of 4 mM. Test compounds were then serially diluted 1:5 in DMSO for an 11-point concentration response and further diluted in the assay buffer bringing all compound concentrations to a final range of 100 μM to […] in 2.5% DMSO. The assay was performed in white 96-well, flat-bottom, half-area, non-binding assay plate (Corning #3642) in assay buffer consisting of 20 mM HEPES (pH 7.5), 10 mM MgCl2*6H2O, 100 μM sodium orthovanadate, 0.05% CHAPS and 0.1% bovine serum albumin. […] The reaction was initiated by the addition of 10 μL of 4× stock solution ATP (2 μM). Reactions were thoroughly mixed manually, covered and allowed to incubate at room temperature for 75 min. Protein kinase activity was quantitated using Promega's KINASE-GLO™ luminescent Kinase Assay Kit according to the manufacturer's directions. ATP concentrations remaining in Test wells following the termination of the enzymatic reaction were compared against control wells containing equivalent amounts of DMSO containing no inhibitor (CTRL). […] Percent of Control (POC) values were determined for each concentration of compound tested according to the equation: POC=((Test well value−BKG)/(CTRL−BKG))*100 IC50 values were calculated using the following 4-parameter logistic curve-fitting algorithm: f(x)=(A+((B−A)/(1+((x/C)^D)))) IC50 values were converted to Ki values using the following Cheng-Prusoff Equation: Ki=IC50/(1+([ATP]/Km ATP])). JAK Kinase Assays.

ROCK1 = ROCK1 (Homo sapiens (Human), UniProt Q13464); experiment: ROCK Kinase Inhibition Assay (ROCK1)
Procedure: as §1, with “Reactions were thoroughly mixed manually, covered and allowed to incubate at room temperature for 75 min.” left out, “directions.” for “directions. ATP concentrations remaining in Test wells following the termination of the enzymatic reaction were compared against control wells containing equivalent amounts of DMSO containing no inhibitor (CTRL).”, “JAK Kinase Assays.” left out

JAK2 = JAK2 (Homo sapiens (Human), UniProt O60674); experiment: JAK Kinase Assay (JAK2)
TYK2 = TYK2 (Homo sapiens (Human), UniProt P29597); experiment: JAK Kinase Assay (TYK2)
JAK1 = JAK1 (Homo sapiens (Human), UniProt P23458); experiment: JAK Kinase Assay (JAK1)

Chain of TYK2 (P29597 whole entry, species assumed): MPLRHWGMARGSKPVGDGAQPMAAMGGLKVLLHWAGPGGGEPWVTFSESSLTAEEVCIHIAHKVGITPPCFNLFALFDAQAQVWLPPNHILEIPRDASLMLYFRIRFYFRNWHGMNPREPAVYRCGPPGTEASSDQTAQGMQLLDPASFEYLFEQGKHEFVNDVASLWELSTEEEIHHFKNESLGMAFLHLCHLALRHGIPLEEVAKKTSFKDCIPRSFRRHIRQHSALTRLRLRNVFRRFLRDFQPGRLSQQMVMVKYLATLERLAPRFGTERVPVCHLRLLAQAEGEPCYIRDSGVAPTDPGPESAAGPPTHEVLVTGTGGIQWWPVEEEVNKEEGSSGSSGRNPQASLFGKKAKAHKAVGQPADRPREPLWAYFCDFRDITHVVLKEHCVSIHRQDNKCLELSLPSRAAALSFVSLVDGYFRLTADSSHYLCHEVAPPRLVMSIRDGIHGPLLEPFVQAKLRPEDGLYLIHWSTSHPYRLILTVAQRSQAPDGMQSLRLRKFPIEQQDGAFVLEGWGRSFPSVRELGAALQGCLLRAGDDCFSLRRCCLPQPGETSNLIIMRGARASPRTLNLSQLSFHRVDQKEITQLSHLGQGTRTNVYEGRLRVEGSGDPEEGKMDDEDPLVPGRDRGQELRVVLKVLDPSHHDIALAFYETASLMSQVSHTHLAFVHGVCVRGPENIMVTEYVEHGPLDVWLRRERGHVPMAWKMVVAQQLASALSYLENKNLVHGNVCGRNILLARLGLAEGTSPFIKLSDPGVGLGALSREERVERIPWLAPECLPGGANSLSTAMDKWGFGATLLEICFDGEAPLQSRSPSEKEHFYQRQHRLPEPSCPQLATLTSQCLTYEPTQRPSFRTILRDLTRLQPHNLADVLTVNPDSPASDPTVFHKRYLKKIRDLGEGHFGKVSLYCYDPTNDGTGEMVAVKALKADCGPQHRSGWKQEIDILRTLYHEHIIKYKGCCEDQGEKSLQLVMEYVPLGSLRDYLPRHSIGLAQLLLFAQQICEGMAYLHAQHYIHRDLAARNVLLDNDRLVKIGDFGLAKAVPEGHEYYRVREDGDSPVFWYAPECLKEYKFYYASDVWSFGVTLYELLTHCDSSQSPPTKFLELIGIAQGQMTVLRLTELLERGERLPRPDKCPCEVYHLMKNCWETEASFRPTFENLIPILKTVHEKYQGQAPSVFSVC
Chain of ROCK2 (O75116 whole entry, species assumed): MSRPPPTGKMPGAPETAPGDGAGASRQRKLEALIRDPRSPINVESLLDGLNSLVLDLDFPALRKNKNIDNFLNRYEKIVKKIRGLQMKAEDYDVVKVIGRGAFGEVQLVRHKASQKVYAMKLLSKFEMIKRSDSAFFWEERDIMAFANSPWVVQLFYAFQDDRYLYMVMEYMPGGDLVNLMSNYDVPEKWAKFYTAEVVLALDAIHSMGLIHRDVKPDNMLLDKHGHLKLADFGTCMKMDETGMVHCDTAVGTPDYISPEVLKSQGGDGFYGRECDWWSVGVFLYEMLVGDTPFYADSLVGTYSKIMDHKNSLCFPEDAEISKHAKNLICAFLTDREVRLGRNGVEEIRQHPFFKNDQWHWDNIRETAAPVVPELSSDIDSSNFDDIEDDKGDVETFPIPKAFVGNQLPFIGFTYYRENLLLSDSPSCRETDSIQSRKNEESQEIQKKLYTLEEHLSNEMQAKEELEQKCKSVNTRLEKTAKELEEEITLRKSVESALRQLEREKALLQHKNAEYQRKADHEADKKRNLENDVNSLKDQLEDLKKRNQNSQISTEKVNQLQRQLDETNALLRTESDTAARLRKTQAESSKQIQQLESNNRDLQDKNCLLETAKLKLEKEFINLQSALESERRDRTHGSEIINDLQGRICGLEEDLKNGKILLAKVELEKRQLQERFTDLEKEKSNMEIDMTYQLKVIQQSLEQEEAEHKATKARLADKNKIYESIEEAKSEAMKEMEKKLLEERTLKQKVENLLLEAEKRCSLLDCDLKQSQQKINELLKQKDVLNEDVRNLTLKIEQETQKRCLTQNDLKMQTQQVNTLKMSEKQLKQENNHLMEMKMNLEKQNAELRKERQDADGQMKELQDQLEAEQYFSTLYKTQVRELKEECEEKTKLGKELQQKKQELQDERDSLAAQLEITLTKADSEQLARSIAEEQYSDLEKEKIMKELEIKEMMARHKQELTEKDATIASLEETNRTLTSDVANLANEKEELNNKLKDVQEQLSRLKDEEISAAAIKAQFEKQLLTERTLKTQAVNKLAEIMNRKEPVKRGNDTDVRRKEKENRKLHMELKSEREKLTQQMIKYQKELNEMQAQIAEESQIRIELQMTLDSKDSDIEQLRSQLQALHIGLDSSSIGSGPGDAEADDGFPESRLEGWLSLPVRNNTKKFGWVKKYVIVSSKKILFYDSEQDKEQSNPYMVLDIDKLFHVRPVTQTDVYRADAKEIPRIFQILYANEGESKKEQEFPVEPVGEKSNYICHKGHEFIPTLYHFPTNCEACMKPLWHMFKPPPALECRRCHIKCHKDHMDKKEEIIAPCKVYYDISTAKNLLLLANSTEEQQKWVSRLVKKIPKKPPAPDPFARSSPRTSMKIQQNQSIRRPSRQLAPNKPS
Chain of JAK2 (O60674 whole entry, species assumed): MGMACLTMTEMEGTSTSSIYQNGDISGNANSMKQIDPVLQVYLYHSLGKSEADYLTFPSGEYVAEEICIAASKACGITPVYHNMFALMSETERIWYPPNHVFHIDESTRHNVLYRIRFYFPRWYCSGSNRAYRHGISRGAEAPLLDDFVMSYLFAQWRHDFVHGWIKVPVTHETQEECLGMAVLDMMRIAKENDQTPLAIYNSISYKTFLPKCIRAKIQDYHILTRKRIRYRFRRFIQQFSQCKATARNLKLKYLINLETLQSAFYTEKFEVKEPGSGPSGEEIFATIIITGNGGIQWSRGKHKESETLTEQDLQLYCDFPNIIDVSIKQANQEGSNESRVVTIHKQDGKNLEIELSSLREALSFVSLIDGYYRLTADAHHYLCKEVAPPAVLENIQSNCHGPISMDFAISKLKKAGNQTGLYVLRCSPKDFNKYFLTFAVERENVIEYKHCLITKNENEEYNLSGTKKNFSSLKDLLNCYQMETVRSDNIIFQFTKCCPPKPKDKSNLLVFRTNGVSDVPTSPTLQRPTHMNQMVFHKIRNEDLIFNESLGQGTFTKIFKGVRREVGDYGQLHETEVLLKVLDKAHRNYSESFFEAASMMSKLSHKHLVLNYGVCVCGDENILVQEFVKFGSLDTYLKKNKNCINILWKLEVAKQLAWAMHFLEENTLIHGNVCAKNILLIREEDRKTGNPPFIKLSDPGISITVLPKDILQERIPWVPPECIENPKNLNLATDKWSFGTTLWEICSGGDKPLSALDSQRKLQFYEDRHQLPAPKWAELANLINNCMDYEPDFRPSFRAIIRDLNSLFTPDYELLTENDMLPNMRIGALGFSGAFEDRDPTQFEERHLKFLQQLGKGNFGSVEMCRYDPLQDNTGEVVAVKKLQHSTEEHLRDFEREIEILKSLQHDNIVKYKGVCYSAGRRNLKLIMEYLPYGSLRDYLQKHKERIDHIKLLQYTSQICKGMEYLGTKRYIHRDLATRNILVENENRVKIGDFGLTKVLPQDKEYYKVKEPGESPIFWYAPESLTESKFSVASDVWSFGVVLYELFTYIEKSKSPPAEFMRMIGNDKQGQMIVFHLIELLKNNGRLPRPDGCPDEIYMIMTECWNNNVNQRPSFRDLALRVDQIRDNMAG
Chain of ROCK1 (Q13464 whole entry, species assumed): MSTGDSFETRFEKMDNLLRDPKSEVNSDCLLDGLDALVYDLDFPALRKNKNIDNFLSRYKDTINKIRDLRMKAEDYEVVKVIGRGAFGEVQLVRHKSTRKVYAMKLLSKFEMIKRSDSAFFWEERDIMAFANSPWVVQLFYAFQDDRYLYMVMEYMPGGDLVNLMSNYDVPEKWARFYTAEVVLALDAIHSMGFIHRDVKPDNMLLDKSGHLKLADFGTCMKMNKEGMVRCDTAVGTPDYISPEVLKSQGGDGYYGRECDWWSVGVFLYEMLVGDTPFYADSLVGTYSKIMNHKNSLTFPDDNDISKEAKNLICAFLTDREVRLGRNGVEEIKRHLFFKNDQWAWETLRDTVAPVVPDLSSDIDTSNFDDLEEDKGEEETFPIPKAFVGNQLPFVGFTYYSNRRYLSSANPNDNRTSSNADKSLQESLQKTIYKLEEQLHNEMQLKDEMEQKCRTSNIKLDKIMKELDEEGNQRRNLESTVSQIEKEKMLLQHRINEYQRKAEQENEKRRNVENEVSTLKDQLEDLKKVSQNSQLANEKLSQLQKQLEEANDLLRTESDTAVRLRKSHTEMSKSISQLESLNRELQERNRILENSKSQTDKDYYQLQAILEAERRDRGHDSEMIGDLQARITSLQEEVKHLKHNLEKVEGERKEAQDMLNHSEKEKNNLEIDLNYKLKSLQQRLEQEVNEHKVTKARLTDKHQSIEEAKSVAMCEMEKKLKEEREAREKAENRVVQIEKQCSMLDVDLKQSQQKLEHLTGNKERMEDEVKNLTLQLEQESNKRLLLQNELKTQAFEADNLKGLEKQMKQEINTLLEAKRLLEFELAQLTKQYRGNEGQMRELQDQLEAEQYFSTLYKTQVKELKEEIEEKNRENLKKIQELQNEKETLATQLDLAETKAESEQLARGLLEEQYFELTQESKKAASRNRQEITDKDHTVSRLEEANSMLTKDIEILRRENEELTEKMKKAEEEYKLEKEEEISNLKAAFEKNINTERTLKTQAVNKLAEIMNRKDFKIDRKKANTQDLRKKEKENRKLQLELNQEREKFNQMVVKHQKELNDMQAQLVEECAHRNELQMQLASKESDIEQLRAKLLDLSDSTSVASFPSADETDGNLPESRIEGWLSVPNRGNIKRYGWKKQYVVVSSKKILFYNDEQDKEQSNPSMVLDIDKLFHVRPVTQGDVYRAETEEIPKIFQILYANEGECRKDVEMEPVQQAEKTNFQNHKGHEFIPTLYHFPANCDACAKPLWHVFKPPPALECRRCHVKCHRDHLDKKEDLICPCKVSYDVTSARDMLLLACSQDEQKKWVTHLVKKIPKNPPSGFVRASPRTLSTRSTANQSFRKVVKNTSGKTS

| IC50 (ROCK2) | SMILES | further results |
| --- | --- | --- |
| 6 nM | O=C(Nc1nc2ccncc2s1)[C@@H]1CC1c1ccc(S(=O)(=O)Nc2ccccn2)cc1 (mixture of isomers) [Compound 3] | IC50 (ROCK1): 7 nM |
| 6 nM | O=C(Nc1ccc2cnccc2n1)[C@@H]1CC1c1ccc(S(=O)(=O)Nc2ccccn2)cc1 (mixture of isomers) [Compound 4] | IC50 (JAK2): 22 nM |
|  | Cc1cncc2sc(NC(=O)[C@@H]3C[C@H]3c3ccc(S(=O)(=O)Nc4ccccn4)cc3)cc12 (racemic) [Compound 5] | IC50 (JAK2): 8.9 nM |
| 5 nM | Cc1cncc2sc(NC(=O)C3CC3c3cc(C(=O)NCc4ncccn4)cs3)cc12 (centres unmarked) [Compound 2] |  |
|  | Cc1cncc2sc(NC(=O)[C@@H]3C[C@H]3c3ccc(S(=O)(=O)Nc4ccccn4)cc3)cc12 [Compound 6] | IC50 (TYK2): 8 nM |
|  | O=C(Nc1cc2c(Cl)cncc2s1)[C@@H]1C[C@H]1c1ccc(S(=O)(=O)Nc2ccccn2)cc1 [Compound 7] | IC50 (TYK2): 1.1 nM |
| 7 nM | O=C(Nc1ccc2cnccc2n1)C1CC1c1ccccc1 (centres unmarked) [Compound 11] |  |
| 12 nM | O=C(Nc1nc2ccncc2s1)C1CC1c1ccccc1 (centres unmarked) [Compound 12] |  |
| 18 nM | Cc1cncc2sc(NC(=O)[C@@H]3C[C@H]3c3ccccc3)cc12 [Compound 13] |  |
| 230 nM | Cc1cncc2sc(NC(=O)C3CC3c3ccncc3)cc12 (centres unmarked) [Compound 14] |  |
|  | O=C(Nc1cc2c(Cl)cncc2s1)[C@@H]1C[C@H]1c1ccccc1 [Compound 15] | IC50 (JAK1): 350 nM |
| 54 nM | Cc1cncc2sc(NC(=O)C3CC3c3ccccc3)cc12 (centres unmarked) [Compound 16] |  |
| 30 nM | O=C(Nc1ccc2cnccc2n1)C1CC1c1ccncc1 (centres unmarked) [Compound 17] |  |
| 30 nM | O=C(Nc1nc2ccncc2s1)C1CC1c1ccncc1 (centres unmarked) [Compound 18] |  |
|  | O=C(Nc1cc2c(Cl)cncc2s1)C1CC1c1ccccc1 (centres unmarked) [Compound 19] | IC50 (ROCK1): 43 nM |
|  | O=C(NCc1ncccn1)c1csc(C2CC2C(=O)Nc2cc3c(Cl)cncc3s2)c1 (centres unmarked) [Compound 20] | IC50 (TYK2): 35 nM |
| 111 nM | O=C(Nc1cc2c(Cl)cncc2s1)C1CC1c1ccncc1 (centres unmarked) [Compound 21] |  |
|  | O=C(Nc1ccc2cnccc2n1)C1CC1c1ccc(S(=O)(=O)Nc2ccccn2)cc1 (centres unmarked) [Compound 22] | IC50 (JAK2): 22 nM |
